In one assay the test system is NS3TP1. Kind of assay: NS3TP1 expression in liver tissue of CCl4 liver fibrosis mice. To be noted: CCl4-induced mice, different doses by gavage, vs untreated group, FIG. 5. It counts as in vivo, C57BL/6 wild-type mice. As to the method: Long-term intraperitoneal injection of carbon tetrachloride (CCl4) induced reversible liver fibrosis, which was often used to screen and evaluate anti-hepatic fibrosis drugs. C57BL/6 wild-type mice were randomly divided into control group, carbon tetrachloride group and treatment group. The treatments were as follows:
Mice in the carbon tetrachloride group: The animals were intraperitoneally injected with carbon tetrachloride in a total amount of 0.5 μL/g, diluted with corn oil to 10 μL/g, 3 times/week. […]

Another assay has as its system NAFLD induced by CHOL. Kind of assay: Mouse NAFLD model induced by CHOL, H&E staining. It counts as in vivo, C57BL/6J male mice. To be noted: CHOL diet mice, 10, 50, 150 mg/kg by gavage bid, 8 weeks, vs untreated group, FIG. 10. The procedure:
• (1) C57BL/6J male mice aged 6 to 8 weeks were selected and randomly divided into normal diet group (n=10) and HFD or CHOL group; the weight changes of the mice were recorded during the modeling period, and the modeling was conducted for 8 weeks (CHOL) or 10 weeks (HFD), then the mice in the HFD or CHOL group were randomly divided into groups according to their body weights, plus the negative control group, a total of 5 groups:
(2) Mice in the negative control group (n=10): The animals were fed with normal diet, and 200 μL of drinking water was administered by gavage, bid.
Mice in HFD or CHOL group (n=10): The animals were fed with HFD or CHOL diet, and 200 μL of normal saline was administered by gavage at the same time, bid. (Note: HFD (60% high fat) feed (Whitby Technology Development (Beijing) Co., Ltd.) (D12492), CHOL (40% high fat +1.25% cholesterol) feed (Whitby Technology Development (Beijing) Co., Ltd.) (D12108C)) (3) Mice in Compound 6-low dose group (n=10): The animals were fed with HFD or CHOL diet, and administrated simultaneously with Compound 6 at a dose of 10 mg/kg by gavage, bid.
(4) Mice in Compound 6-middle dose group (n=10): The animals were fed with HFD or CHOL diet, and administrated simultaneously with Compound 6 at a dose of 50 mg/kg by gavage, bid. […]

A further assay concerns α-SMA. Kind of assay: Activated LX2 cells (TGFβ1), Western blot: α-SMA. It counts as cell-based. Particulars: LX2 cells stimulated with TGFβ1 (5 ng/mL), 24 hours, FIG. 4.

Where a name gives a salt, the structure may show the parent alone.

On to `COC(=O)C[C@H](N)C(=O)O` [Compound 6], for which, in the assay on NS3TP1, the “expression of NS3TP1 in the liver tissue of mice” value was “gradually increased in a dose-dependent manner”. Further, the “lipid droplet aggregation in the liver tissue of mice (H&E)” value in the assay on NAFLD induced by CHOL is given as “reduced in a dose-dependent manner”.
As for `COC(=O)C[C@H](N)C(=O)OCOC(=O)[C@@H](N)CC(=O)OC` [Compound 54, 4-dimethyl O′1,01-methylene (2S,2'S)-bis (2-aminosuccinate) hydrochloride], the “expression of α-SMA in the cells” value in the assay with α-SMA is on record as “significantly decreased”.

The record behind these values is US20250025438A1, “Derivative of aspartic acid and use thereof in treatment of metabolic diseases such as hepatic fibrosis and non-alcoholic hepatitis” (SHENZHEN JINGTAI TECHNOLOGY CO., LTD., priority 2021, published 2025).
